Reference: PubChem BioAssay (NCI)
Values joined by “and” are separate entries in the source; they are usually repeats but may differ in a detail not shown here. Equal entries are not always repeated.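 Compound exposure: 48 hours, 5 concentrations, 96-well plates. GI50 = concentration required for 50% inhibition of growth. TGI: total growth inhibition.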

Columns and labels:
Experiment in all cases: inhibition of tumour cell growth, NCI panel, 48 h
HOP-62 NSCLC = tested on: HOP-62 NSCLC
BT-549 breast = tested on: BT-549 breast
SF-268 CNS = tested on: SF-268 CNS
MDA-MB-435 = tested on: MDA-MB-435
DU-145 prostate = tested on: DU-145 prostate
OVCAR-4 ovarian = tested on: OVCAR-4 ovarian
HL-60(TB) leukemia = tested on: HL-60(TB) leukemia
A549 NSCLC = tested on: A549 NSCLC
TK-10 renal = tested on: TK-10 renal
OVCAR-3 ovarian = tested on: OVCAR-3 ovarian

Row | SMILES | TGI (HOP-62 NSCLC) | TGI (BT-549 breast) | TGI (SF-268 CNS) | TGI (MDA-MB-435) | TGI (DU-145 prostate) | TGI (OVCAR-4 ovarian) | TGI (HL-60(TB) leukemia) | TGI (A549 NSCLC) | TGI (TK-10 renal) | TGI (OVCAR-3 ovarian) | GI50 (OVCAR-4 ovarian) | GI50 (TK-10 renal) | GI50 (BT-549 breast) | GI50 (SF-268 CNS) | GI50 (MDA-MB-435) | GI50 (HOP-62 NSCLC) | GI50 (DU-145 prostate) | GI50 (OVCAR-3 ovarian)
1 | COc1cc(C2c3cc4c(cc3OC(NNc3ccccc3)C2C)OCO4)cc(OC)c1O (stereo not drawn) | 33.1 µM | 28 µM | 27.4 µM | 3.96 µM | 17.5 µM | 38.2 µM | 5.18 µM | 13.3 µM | 23.6 µM | 14.8 µM | – | – | – | – | – | – | – | –
2 | NCCN(CCN)/[N+]([O-])=N/O | > 100 µM | > 100 µM | > 100 µM | > 100 µM | > 100 µM | > 100 µM | > 100 µM | > 100 µM | > 100 µM | > 100 µM | – | – | – | – | – | – | – | –
3 | Cc1csc2c(=O)n(COCc3ccccc3)c(=O)[nH]c12 | > 100 µM | > 100 µM | > 100 µM | > 100 µM | > 100 µM | > 100 µM | > 100 µM | > 100 µM | > 100 µM | > 100 µM | – | – | – | – | – | – | – | –
4 | NC(CS)C(=O)NCCNc1ccc(NCCNC(=O)C(N)CS)c2c1C(=O)c1c(O)ccc(O)c1C2=O (stereo not drawn) | 0.03 µM and 0.0483 µM | 1.42 µM | 0.953 µM | 1.86 µM | 0.123 µM | 0.847 µM and 0.401 µM | 0.0414 µM | 0.191 µM | 3.58 µM and 0.49 µM | 1.76 µM and 1.58 µM | 0.109 µM | 0.08 µM | – | – | – | – | – | –
5 | O=[N+]([O-])c1ccc2c(N=Nc3ccc4ccccc4c3O)c(O)cc(S(=O)(=O)O)c2c1 | 99.7 µM | > 100 µM | 63.9 µM | > 100 µM | > 88.4 µM | > 100 µM | 23.1 µM | > 100 µM | > 100 µM | 99.5 µM | – | – | – | – | – | – | – | –
6 | C[C@]12CCC(=O)C=C1CC[C@@H]1C2CC[C@@]2(C)C1CC[C@@H]2OC(=O)C12OC1CCC2=O (stereo partly drawn) | 70 µM | – | 41.2 µM | – | – | 41.5 µM | 33.5 µM | 54.6 µM | 35.9 µM | 32.9 µM | – | – | – | – | – | – | – | –
7 | O=C1C(c2c(O)[nH]c3ccc(I)cc23)=Nc2ccccc21 | 30 µM | 29.2 µM | 17.2 µM | > 100 µM | > 100 µM | > 44.7 µM | > 100 µM | 20.3 µM | 17.9 µM | 29.2 µM | – | – | – | – | – | – | – | –
8 | CC(=O)CC12NC(=O)N(C)N=C1N(C)C(=O)N(C)C2=O (stereo not drawn) | > 100 µM | > 100 µM | > 100 µM | 31 µM | > 100 µM | > 100 µM | > 100 µM | > 100 µM | > 100 µM | > 100 µM | – | – | – | – | – | – | – | –
9 | Cc1cc(=O)[nH]c(NNC(C#N)c2ccc(N(C)C)cc2)n1 (stereo not drawn) | > 100 µM | – | > 100 µM | – | – | > 100 µM | > 100 µM | > 100 µM | > 100 µM | > 100 µM | – | – | – | – | – | – | – | –
10 | N#Cc1c(O)c(C=O)c(=O)n2c1[nH]c1ccccc12 | > 100 µM | > 100 µM | > 100 µM | > 100 µM | > 100 µM | > 100 µM | – | > 100 µM | > 100 µM | > 100 µM | – | – | – | – | – | – | – | –
11 | CNC(=O)c1cc(Oc2cccc3nc(NC(=O)Nc4ccc(F)cc4F)ccc23)ccn1 | – | > 50 µM | > 50 µM | > 50 µM | – | – | – | – | – | – | – | – | > 50 µM | 1.9 µM | 1.5 µM | – | – | –
12 | Nc1ccn(CCCC(c2ccccc2)P(=O)(O)O)c(=O)n1 (stereo not drawn) | > 100 µM | – | > 100 µM | – | – | – | > 100 µM | > 100 µM | > 100 µM | > 100 µM | – | – | – | – | – | – | – | –
13 | COC(=O)[C@@H](NC(=O)c1ccc(CNC(=O)/C(C)=C/c2ccccc2)cc1)C(C)C | > 100 µM | > 100 µM | > 100 µM | > 100 µM | > 100 µM | > 100 µM | – | > 100 µM | > 100 µM | > 100 µM | – | – | – | – | – | – | – | –
14 | COCC1N=C(c2cc(OC)c(OC)c(OC)c2-c2cc3c(cc2[C@@H](C)O)OCO3)O[C@H]1c1ccccc1 (stereo partly drawn) | > 100 µM | – | > 100 µM | – | – | > 100 µM | > 100 µM | > 100 µM | – | > 100 µM | – | – | – | – | – | – | – | –
15 | O=C1[C@H](O)[C@@H]2CCC[C@@]23CCCN13 | > 100 µM | – | > 100 µM | > 100 µM | > 100 µM | – | > 100 µM | > 100 µM | > 100 µM | > 100 µM | – | – | – | – | – | – | – | –
16 | COc1cc(O)c2c(=O)c(OC)c(-c3ccc(OC)c(OC)c3)oc2c1.[Sn] | > 100 µM | > 100 µM | > 100 µM | – | > 100 µM | > 100 µM | > 100 µM | > 100 µM | > 100 µM | > 100 µM | 8.24 µM | – | – | > 100 µM | – | > 100 µM | > 100 µM | > 100 µM
17 | COc1ccc2nc3c([N+](=O)[O-])ccc(NCCCN(C)C)c3c(N)c2c1 | 3.89 µM | – | 3.31 µM | 3.66 µM | 3.05 µM | 3.06 µM | 5.86 µM | 3.15 µM | 3.46 µM | 3 µM | – | – | – | – | – | – | – | –
18 | O=C1CCc2ccccc2O1 | > 100 µM | – | > 100 µM | > 100 µM | > 100 µM | > 100 µM | > 100 µM | – | > 100 µM | > 100 µM | – | – | – | – | – | – | – | –
19 | Clc1ccc(Nc2nnc(CNc3ccc(-c4nnc(Nc5ccc(Cl)cc5)o4)cc3)o2)cc1 | 35.1 µM | 38.6 µM | 73.9 µM | 30.6 µM | 26.2 µM | 42.6 µM | > 100 µM | 30.2 µM | 28.9 µM | 23.9 µM | – | – | – | – | – | – | – | –
20 | CC1(C)OC2OC(C(=O)c3ccccc3)C3OC(C)(C)OC3C2O1 (stereo not drawn) | > 100 µM | > 100 µM | > 100 µM | > 100 µM | > 100 µM | > 100 µM | > 100 µM | – | > 100 µM | > 100 µM | – | – | – | – | – | – | – | –
21 | CON(C(=O)OC(C)(C)C)c1ccccc1 | > 100 µM | > 100 µM | > 100 µM | > 100 µM | > 100 µM | > 100 µM | > 100 µM | > 100 µM | > 100 µM | > 100 µM | – | – | – | – | – | – | – | –
22 | COc1cc(/C=C/C2=NN(c3cccc(S(=O)(=O)O)c3)C3(C2)SCC(=O)N3c2nc3ccccc3s2)cc(OC)c1OC (stereo not drawn) | – | > 100 µM | > 100 µM | 50.2 µM | > 100 µM | > 100 µM | > 100 µM | > 100 µM | 93.3 µM | – | – | – | – | – | – | – | – | –
